{"source": "patent US5118804A", "about": "“Process for preparing alkyl-1-thioglycosides and alkyl-glycosides, anomer mixtures thereof” (Beghin-Say, SA, priority 1989, dated 1992)", "key": {"[1]": {"system": "cytochromes P-45011β and P-450scc", "test": "Extraction of cytochromes P-45011β and P-450scc from mitochondrions of the bovine suprarenal cortex, and inactivation of the proteins", "conditions": "proteins 20 mg/ml, detergent 15 mg/ml; for Extraction rate [after 1 h] / Inactivation rate [after 1 h]: pH 7.4, after 1 h; for Extraction rate [after 2 h] / Inactivation rate [after 2 h]: pH 7.4, after 2 h", "from_the_text": "For example, but without implying any limitation with regard to other uses, several alkyl-1-thio-α,β-glycosides prepared in the manner of the invention were used to extract membrane proteins from the bovine suprarenal cortex. The suprarenal cortex cells contain enzyme systems which cause steroidogenesis. […] In conventionally used methods, they are optimally extracted in the presence of sodium cholate. However, the ionic nature of the sodium cholate detergent results in a greater denaturation rate of the enzymatic proteins as the contact time between the proteins and the sodium cholate is prolonged. Accordingly, and in particular, the sodium cholate detergent presents difficulties when used to reconstitute the lipid environment of these proteins.\n(§1) The membrane proteins are extracted by incubation in a suitable buffer containing 50 mM potassium phosphate, pH=7.4, 1 mM dithiothreitol, 1 mM EDTA, and 10 μM desoxycorticosterone. The respective concentrations of proteins and detergents are 20 and 15 mg/ml. Following incubation, the medium is centrifuged (100,000 g, 45 mins.) and the cytochromes P-450 are metered into the supernatant by recording the differential spectrum for the reduced form Fe^2+ and the complex Fe^2+ CO. Denaturation is estimated by the absorption difference measured at 450 nm (native form) and 420 nm (denatured form)."}, "cytochrome P-45017α": {"system": "cytochrome P-45017α", "test": "Extraction of cytochrome P-45017α from bovine suprarenal cortex microsomes, and inactivation of the protein", "set-up": "unit not given here", "conditions": "30 mins. at 4° C, proteins 4 mg/ml, detergent 15 mg/ml", "from_the_text": "These CMC values allow the glycosides to be used as detergents in membrane protein extraction. For example, but without implying any limitation with regard to other uses, several alkyl-1-thio-α,β-glycosides prepared in the manner of the invention were used to extract membrane proteins from the bovine suprarenal cortex. The suprarenal cortex cells contain enzyme systems which cause steroidogenesis. These are membrane enzymes in the mitochondrions (cytochromes P-45011β and P-450scc) and in the microsomes (cytochrome P-45017α). In conventionally used methods, they are optimally extracted in the presence of sodium cholate. However, the ionic nature of the sodium cholate detergent results in a greater denaturation rate of the enzymatic proteins as the contact time between the proteins and the sodium cholate is prolonged. Accordingly, and in particular, the sodium cholate detergent presents difficulties when used to reconstitute the lipid environment of these proteins.\nas §1, with “The mitochondrions of the bovine suprarenal cortex are prepared in the manner of M. Satre & P. V. Vignais (Biochemistry, 13 (1974) 2201). The membrane” for “The membrane”\nThe extraction of cytochrome P-45017α involved obtaining the bovine suprarenal cortex microsomes in the form of a button after 45 mins. centrifugation at 100,000 g of the post-mitochondrial supernatant. The membrane proteins are extracted as indicated above in reference to Table 2 for 30 mins. at 4° C. The respective concentrations of the proteins and detergents are 4 and 15 mg/ml. Following centrifugation, the activity of cytochrome P-45017α is measured in the supernatant by checking the transformation of (^3 H)-pregnenolone into (^3 H)-17α-hydroxy-pregnenolone."}, "[2]": {"test": "Critical micelle concentration (CMC), Tsuchiya and Saito method", "format": "physicochemical", "conditions": "α,β anomer mixtures", "from_the_text": "The critical micelle concentrations as measured according to the Tsuchiya and Saito method, J. Biochem., 96 (1984), 1593, are set forth in Table 1 for various fatty acid chain alkyl-1-thio-α,β-glycosides prepared according to the present invention."}, "[3]": {"conditions": "Chem. Pharm. Bull., 33 (1985), 503-8; cited from earlier work"}}}
{"smiles": "C[C@H](CCC(=O)O)[C@H]1CC[C@H]2[C@@H]3[C@H](O)C[C@@H]4C[C@H](O)CC[C@]4(C)[C@H]3C[C@H](O)[C@]12C", "note": "[sodium cholate, reference compound]", "values": [{"measurement": "Extraction rate [after 1 h]", "setting": "[1]", "value": 0, "unit": "%"}, {"measurement": "Inactivation rate [after 1 h]", "setting": "[1]", "value": 94, "unit": "%"}]}
{"smiles": "CCCCCCCSC1O[C@H](CO)[C@@H](O[C@@H]2O[C@H](CO)[C@H](O)[C@H](O)[C@H]2O)[C@H](O)[C@H]1O", "note": "(stereo partly drawn) [1-heptyl-1-thio-α,β-lactoside]", "values": [{"measurement": "Extraction rate [after 1 h]", "setting": "[1]", "value": 0, "unit": "%"}, {"measurement": "Inactivation rate [after 1 h]", "setting": "[1]", "value": 30, "unit": "%"}, {"measurement": "Extraction rate [after 2 h]", "setting": "[1]", "value": 0, "unit": "%"}, {"measurement": "Inactivation rate [after 2 h]", "setting": "[1]", "value": 50, "unit": "%"}, {"measurement": "Extraction rate", "setting": "cytochrome P-45017α", "value": 57}, {"measurement": "Inactivation rate", "setting": "cytochrome P-45017α", "value": 0}]}
{"smiles": "CCCCCCCCSC1O[C@H](CO)[C@@H](O[C@@H]2O[C@H](CO)[C@@H](O)[C@H](O)[C@H]2O)[C@H](O)[C@H]1O", "note": "(stereo partly drawn) [1-octyl-1-thio-α,β-cellobioside]", "values": [{"measurement": "Critical micelle concentration (CMC)", "setting": "[2]", "value": 0.2, "unit": "mM"}, {"measurement": "Extraction rate [after 1 h]", "setting": "[1]", "value": 0, "unit": "%"}, {"measurement": "Inactivation rate [after 1 h]", "setting": "[1]", "value": 55, "unit": "%"}, {"measurement": "Extraction rate [after 2 h]", "setting": "[1]", "value": 0, "unit": "%"}, {"measurement": "Inactivation rate [after 2 h]", "setting": "[1]", "value": 20, "unit": "%"}, {"measurement": "Extraction rate", "setting": "cytochrome P-45017α", "value": 72}, {"measurement": "Inactivation rate", "setting": "cytochrome P-45017α", "value": 0}]}
{"smiles": "CCCCCCCCSC1O[C@H](CO)[C@@H](O[C@@H]2O[C@H](CO)[C@H](O)[C@H](O)[C@H]2O)[C@H](O)[C@H]1O", "note": "(stereo partly drawn) [1-octyl-1-thio-α,β-lactoside]", "values": [{"measurement": "Critical micelle concentration (CMC)", "setting": "[2]", "value": 0.2, "unit": "mM"}, {"measurement": "Extraction rate [after 1 h]", "setting": "[1]", "value": 0, "unit": "%"}, {"measurement": "Inactivation rate [after 1 h]", "setting": "[1]", "value": 55, "unit": "%"}, {"measurement": "Extraction rate [after 2 h]", "setting": "[1]", "value": 0, "unit": "%"}, {"measurement": "Inactivation rate [after 2 h]", "setting": "[1]", "value": 62, "unit": "%"}, {"measurement": "Extraction rate", "setting": "cytochrome P-45017α", "value": 65}, {"measurement": "Inactivation rate", "setting": "cytochrome P-45017α", "value": 57}]}
{"smiles": "CCCCCCCCO[C@@H]1O[C@H](CO)[C@@H](O)[C@H](O)[C@H]1O", "note": "[1-octyl-β-D-glucopyranoside, reference compound]", "values": [{"measurement": "Extraction rate [after 1 h]", "setting": "[1]", "value": 0, "unit": "%"}, {"measurement": "Inactivation rate [after 1 h]", "setting": "[1]", "value": 100, "unit": "%"}, {"measurement": "Extraction rate [after 2 h]", "setting": "[1]", "value": 0, "unit": "%"}, {"measurement": "Inactivation rate [after 2 h]", "setting": "[1]", "value": 100, "unit": "%"}, {"measurement": "Extraction rate", "setting": "cytochrome P-45017α", "value": 89}, {"measurement": "Inactivation rate", "setting": "cytochrome P-45017α", "value": 20}]}
{"smiles": "CCCCCCCCSC1O[C@H](CO)[C@@H](O)[C@H](O)[C@H]1O", "note": "(stereo partly drawn) [1-octyl-1-thio-α,β- -- D-glucopyranoside, 1-octyl-1-thio-α,β-D-glucopyranoside]", "values": [{"measurement": "Critical micelle concentration (CMC)", "setting": "[2]", "value": 3.0, "unit": "mM"}, {"measurement": "Extraction rate [after 1 h]", "setting": "[1]", "value": 43, "unit": "%"}, {"measurement": "Inactivation rate [after 1 h]", "setting": "[1]", "value": 60, "unit": "%"}, {"measurement": "Extraction rate [after 2 h]", "setting": "[1]", "value": 49, "unit": "%"}, {"measurement": "Inactivation rate [after 2 h]", "setting": "[1]", "value": 72, "unit": "%"}, {"measurement": "Extraction rate", "setting": "cytochrome P-45017α", "value": 93}, {"measurement": "Inactivation rate", "setting": "cytochrome P-45017α", "value": 0}]}
{"smiles": "CCCCCCCSC1O[C@H](CO)[C@@H](O)[C@H](O)[C@H]1O", "note": "(stereo partly drawn) [1-heptyl-1-thio-α,β-D-glucopyranoside]", "values": [{"measurement": "Critical micelle concentration (CMC)", "setting": "[2]", "value": 4.1, "unit": "mM"}, {"measurement": "Extraction rate [after 1 h]", "setting": "[1]", "value": 0, "unit": "%"}, {"measurement": "Inactivation rate [after 1 h]", "setting": "[1]", "value": 48, "unit": "%"}, {"measurement": "Extraction rate [after 2 h]", "setting": "[1]", "value": 0, "unit": "%"}, {"measurement": "Inactivation rate [after 2 h]", "setting": "[1]", "value": 47, "unit": "%"}, {"measurement": "Extraction rate", "setting": "cytochrome P-45017α", "value": 85}, {"measurement": "Inactivation rate", "setting": "cytochrome P-45017α", "value": 0}]}
{"smiles": "CCCCCCCCS[C@@H]1O[C@H](CO)[C@@H](O)[C@H](O)[C@H]1O", "note": "[1-octyl-1-thio-β- -- D-glucopyranoside, 1-octyl-1-thio-β-D-glucopyranoside, reference compound]", "values": [{"measurement": "CMC of the prior art mentioned in the literature", "setting": "[3]", "value": 9.0, "unit": "mM"}, {"measurement": "Extraction rate [after 1 h]", "setting": "[1]", "value": 0, "unit": "%"}, {"measurement": "Inactivation rate [after 1 h]", "setting": "[1]", "value": 18, "unit": "%"}, {"measurement": "Extraction rate [after 2 h]", "setting": "[1]", "value": 48, "unit": "%"}, {"measurement": "Inactivation rate [after 2 h]", "setting": "[1]", "value": 91, "unit": "%"}, {"measurement": "Extraction rate", "setting": "cytochrome P-45017α", "value": 31}, {"measurement": "Inactivation rate", "setting": "cytochrome P-45017α", "value": 0}]}
{"smiles": "CCCCCCCCSC1O[C@H](CO)[C@@H](O[C@H]2O[C@H](CO)[C@@H](O)[C@H](O)[C@H]2O)[C@H](O)[C@H]1O", "note": "(stereo partly drawn) [1-octyl-1-thio-α,β-maltoside]", "values": [{"measurement": "Critical micelle concentration (CMC)", "setting": "[2]", "value": 0.2, "unit": "mM"}, {"measurement": "Extraction rate [after 1 h]", "setting": "[1]", "value": 0, "unit": "%"}, {"measurement": "Inactivation rate [after 1 h]", "setting": "[1]", "value": 48, "unit": "%"}, {"measurement": "Extraction rate [after 2 h]", "setting": "[1]", "value": 21, "unit": "%"}, {"measurement": "Inactivation rate [after 2 h]", "setting": "[1]", "value": 94, "unit": "%"}, {"measurement": "Extraction rate", "setting": "cytochrome P-45017α", "value": 58}, {"measurement": "Inactivation rate", "setting": "cytochrome P-45017α", "value": 0}]}
